Results from US5830888A, “Macrocyclic retroviral protease inhibitors” (Monsanto Company, priority 1995, dated 1998).

molecular target: T1, HIV protease (Human immunodeficiency virus type 1 group M subtype B, UniProt P04585); assay: HIV protease enzyme assay (fluorescence, substrate 2-aminobenzoyl-lle-Nle-Phe(p-NO2)-Gin-ArgNH2); format: biochemical; conditions: 10 microM; HIV protease 12.3 nanomolar; substrate 80 μM; pH 6.4
T1 construct: HIV protease is diluted in the assay buffer to a final enzyme concentration of 12.3 nanomolar, based on a molecular weight of 10,780
Protocol: The compounds of the present invention are effective HIV protease inhibitors. […] The calculated IC50 (inhibiting concentration 50%, i.e., the concentration at which the inhibitor compound reduces enzyme activity by 50%) values are shown in Table 1. The enzyme method is described below. The substrate is 2-aminobenzoyl-lle-Nle-Phe(p-NO2)-Gin-ArgNH2. The positive control is MVT-101 [Miller, M. et al, Science, 246, 1149 (1989)]. The assay conditions are as follows:
Assay buffer: 20 mM sodium phosphate, pH 6.4
The above described substrate is dissolved in DMSO, then diluted 10 fold in assay buffer. Final substrate concentration in the assay is 80 μM. HIV protease is diluted in the assay buffer to a final enzyme concentration of 12.3 nanomolar, based on a molecular weight of 10,780.
The final concentration of DMSO is 14% and the final concentration of glycerol is 18%. The test compound is dissolved in DMSO and diluted in DMSO to 10×the test concentration; 10 μL of the enzyme preparation is added, the materials mixed and then the mixture is incubated at ambient temperature for 15 minutes. The enzyme reaction is initiated by the addition of 40 μL of substrate. The increase in fluorescence is monitored at 4 time points (0, 8, 16 and 24 minutes) at ambient temperature. Each assay is carried out in duplicate wells.

| SMILES | inhibition at 10 µM [%] |
| --- | --- |
| CC(C)CCN1C[C@@H](O)[C@H](Cc2ccccc2)NC(=O)CCSCCCCCNC1=O [Compound 5] | 20 |
| CC(C)CCN1C[C@@H](O)[C@H](Cc2ccccc2)NC(=O)[C@@H](NC(=O)OCc2ccccc2)CSCCCCCCC1=O [Compound 10] | 47 |
| CC(C)CCN1C[C@@H](O)[C@H](Cc2ccccc2)NC(=O)CCS(=O)(=O)CCCCCNC1=O [Compound 17, 1-Thia-5,9,11-Triazacyclohexadecane, 7-Hydroxy-9-(3-Methylbutyl)-4,10-Dioxo-6-(Phenylmethyl)-, 1,1-Dioxide, Cis-] | 21 |
| CC(C)CCN1C[C@@H](O)[C@H](Cc2ccccc2)NC(=O)[C@@H](NC(=O)OCc2ccccc2)CC(=O)NCCCNC1=O [Compound 20, Carbamic Acid, [5-Hydroxy-3-(3-Methylbutyl)-2,8,11-Trioxo-5-(Phenylmethyl)-1,3,7,12-Tetraazacyclopentadec-9-YL]-, Phenylmethylester, (98-Trans)-] | 16 |

same assay, conditions: HIV protease 12.3 nanomolar; substrate 80 μM; pH 6.4; ambient temperature; read-out: IC50 (inhibiting concentration 50%)

| SMILES | IC50 [nM] |
| --- | --- |
| CC(C)CCN1C[C@@H](O)[C@H](Cc2ccccc2)NC(=O)[C@@H](NC(=O)OCc2ccccc2)CSCCCCNC1=O [Compound 1] | 340 |
| CC(C)CCN1C[C@@H](O)[C@H](Cc2ccccc2)NC(=O)[C@@H](NC(=O)OCc2ccccc2)CSCCCCCNC1=O [Compound 2] | 570 |
| CC(C)CCN1C[C@@H](O)[C@H](Cc2ccccc2)NC(=O)[C@@H](NC(=O)OCc2ccccc2)CSCCCCCCNC1=O [Compound 3] | 1730 |
| CC(=O)N[C@H]1CSCCCCCNC(=O)N(CCC(C)C)C[C@@H](O)[C@H](Cc2ccccc2)NC1=O [Compound 4] | 1600 |
| CC(C)CCN1C[C@@H](O)[C@H](Cc2ccccc2)NC(=O)[C@@H](NC(=O)OCc2ccccc2)CSCCCCC(C)(C)NC1=O [Compound 6] | 220 |
| CC(C)CCN1C[C@@H](O)[C@H](Cc2ccccc2)NC(=O)[C@@H](NC(=O)OCc2ccccc2)C(C)(C)SCCCCCNC1=O [Compound 7] | 1260 |
| CC(C)CCN1C[C@@H](O)[C@H](Cc2ccccc2)NC(=O)[C@@H](NC(=O)OCc2ccccc2)CSCCCC(C)(C)NC1=O [Compound 8] | 140 |
| CC(C)CCN1C[C@@H](O)[C@H](Cc2ccccc2)NC(=O)[C@@H](NC(=O)c2ccc3ccccc3n2)CSCCCCCNC1=O [Compound 9] | 510 |
